The subject of the test is HCV replicon. The test is described as follows: HCV replicon replication assay (NPT ELISA) in Huh-7 replicon-containing cells. Format: cell-based. The following applies: Hepatitis C virus, 72 h; HCV replicon in Huh-7 cells, three days incubation; read-out: EC50. On the procedure:
Compounds claimed herein are tested for the ability to inhibit viral replication of the Hepatitis C replicon in cultured cells in which the HCV replicon construct has been incorporated. The HCV replicon system was described by Bartenschlager, et. al (Science, 285, pp. 110-113 (1999)). The replicon system is predictive of in vivo anti-HCV activity; compounds that are active in humans uniformly evidence activity in the replicon assay.
In this assay HCV replicon containing cells are treated with different concentrations of the test compound to ascertain the ability of the test compound to suppress replication of the HCV replicon. As a positive control, HCV replicon-containing cells are treated with different concentrations of interferon alpha, a known inhibitor of HCV replication. The replicon assay system includes Neomycin Phosphotransferase (NPT) as a component of the replicon itself in order to detect the transcription of replicon gene products in the host cell. Cells in which the HCV replicon is actively replicating have high levels of NPT; the level of NPT is proportional to HCV replication. […] The NPT level of each sample is measured using a captured ELISA.
A protocol for testing compounds for the ability to inhibit viral replication of the Hepatitis C replicon cultured cells in which the replicon construct has been incorporated, follows.
The HCV replicon contains, 5′-3′, the HCV-IRES, the neomycin phosphotransferase (neo) gene, the IRES of encephalomyocarditis virus, which directs translation of HCV sequences NS3 to NS5B, and the 3′-NTR. The sequence of the HCV replicon has been deposited in GenBank (Accession no. AJ242652).
The replicon is transfected into Huh-7 cells using standard methods such as electroporation.
The equipment and materials include, but are not limited to, Huh-7 HCV replicon-containing cells, maintenance media (DMEM (Dulbecco's modified Eagle media) supplemented with 10% FBS, L-glutamine, non-essential amino acids, penicillin (100 units/ml), streptomycin (100 micrograms/ml), and 500 micrograms/ml of Geneticin (G418), screening media (DMEM supplemented with 10% FBS, L-glutamine, non-essential amino acids, penicillin (100 units/ml) and streptomycin (100 micrograms/ml)), 96 well tissue culture plates (flat bottom), 96 well plates (U bottom for drug dilution), Interferon alpha for positive control, fixation reagent (such as methanol: acetone), primary antibody (rabbit anti-NPTII), secondary antibody: Eu-N1 l, and enhancement solution.
HCV replicon-containing cells support high levels of viral RNA replicon replication when their density is suitable. Over-confluency causes decreased viral RNA replication. Therefore, cells must be kept growing in log phase in the presence of 500 micrograms/ml of G418. Generally, cells should be passed twice a week at 1: 4-6 dilution. Cell maintenance is conducted as follows:
HCV replicon-containing cells are examined under a microscope to ensure that cells growing well. Cells are rinsed once with PBS and 2 ml trypsin is added. The cell/trypsin mixture is incubated at 37° C. in a CO2 incubator for 3-5 minutes. After incubation 10 ml of complete media is added to stop the trypsinization reaction. Cells are blown gently, put into a 15 ml tube, and spun at 1200 rpm for 4 minutes. The trypsin/medium solution is removed. Medium (5 ml) is added and the cells are mixed carefully. The cells are counted.
The cells are then seeded onto 96-well plates at a density of 6000-7500 cells/100 microliters/well (6-7.5×10^5 cells/10 ml/plate). The plates are then incubated at 37° C. in a 5% CO2 incubator.
Cells are examined under a microscope approximated 24 hours after seeding and prior to adding drugs. If counting and dilution were performed correctly, cells are 60-70% confluent and nearly all cells should attach and spread evenly in the well.
HCV replicon-containing cells are rinsed with once PBS once; 2 mls of trypsin are then added. Cells are incubated at 37° C. in a 5% CO2 incubator for 3-5 minutes. […]
(Replicon systems follow genome replication, usually without infectious particles.)
The term EC50 denotes the concentration needed to bring the measured effect to its halfway point. `C=C[C@@H]1C[C@]1(NC(=O)[C@@H]1C[C@@H](Oc2cc(-c3ccccc3)nc3cc(OC)ccc23)CN1C(=O)[C@@H](CC(=O)N1CCCCC1)C1CC1)C(=O)NS(=O)(=O)C1CC1` [Compound 121, (2S,4R)-1-((S)-2-cyclopropyl-4-oxo-4-(piperidin-1-yl)butanoyl)-N-((1R,2S)-1-(cyclopropylsulfonyl-carbamoyl)-2-vinylcyclopropyl)-4-(7-methoxy-2-phenylquinolin-4-yloxy)pyrrolidine-2-carboxamide]: the 50% effective concentration (EC50) is under 1000 nM.

With `CC[C@@H]1C[C@]1(NC(=O)[C@@H]1C[C@@H](Oc2cc(-c3ccccc3)nc3cc(OC)ccc23)CN1C(=O)[C@@H](CC(=O)N1CCCCC1)C(C)(C)C)C(=O)NS(=O)(=O)C1CC1` [Compound 149, (2S,4R)-1-((S)-2-tert-butyl-4-oxo-4-(piperidin-1-yl)butanoyl)-N-((1R,2R)-1-(cyclo-propylsulfonyl-carbamoyl)-2-ethylcyclopropyl)-4-(7-methoxy-2-phenylquinolin-4-yloxy)pyrrolidine-2-carboxamide], the concentration for a half-maximal effect (EC50) was under 1000 nM.

`C=C[C@H]1C[C@]1(NC(=O)[C@@H]1C[C@@H](Oc2cc(-c3ccccc3)nc3cc(OC)ccc23)CN1C(=O)[C@@H](CC(=O)N1CCCCC1)C1CCCC1)C(=O)NS(=O)(=O)C1CC1` [Compound 86, (2S,4R)-1-((S)-2-cyclopentyl-4-oxo-4-(piperidin-1-yl)butanoyl)-N-((1R,2R)-1-(cyclo-propylsulfonyl-carbamoyl)-2-vinylcyclopropyl)-4-(7-methoxy-2-phenylquinolin-4-yloxy)pyrrolidine-2-carboxamide]: the EC50 is under 1000 nM.

With `C=C[C@@H]1C[C@]1(NC(=O)[C@@H]1C[C@@H](Oc2nccc3c(Cl)c(OC)ccc23)CN1C(=O)[C@@H](CC(=O)N1CCCC(F)(F)C1)C(C)(C)C)C(=O)NS(=O)(=O)C1CC1` [Compound 247, (2S,4R)-1-((S)-2-tert-butyl-4-(3,3-difluoropiperidin-1-yl)-4-oxobutanoyl)-4-(5-chloro-6-methoxyisoquinolin-1-yloxy)-N-((2S)-1-(cyclopropyl-sulfonylcarbamoyl)-2-vinylcyclo-propyl)pyrrolidine-2-carboxamide], the 50% effective concentration (EC50) is under 1000 nM.

Regarding `C=CC1C[C@]1(NC(=O)[C@@H]1C[C@@H](Oc2cc(-c3ccccc3)nc3cc(OC)ccc23)CN1C(=O)[C@@H](CC(=O)N1CCCC(C(=O)OCC)C1)C(C)(C)C)C(=O)NS(=O)(=O)C1CC1` (stereo partly drawn) [Compound 160, ethyl 1-((S)-3-((2S,4R)-2-((1R,2S)-1-(cyclopropyl-sulfonylcarbamoyl)-2-vinylcyclopropyl-carbamoyl)-4-(7-methoxy-2-phenylquinolin-4-yloxy)pyrrolidine-1-carbonyl)-4,4-dime-thylpentanoyl)piper-idine-3-carboxylate], the concentration giving a half-maximal response (EC50) is under 1000 nM.

In the case of `C=C[C@@H]1C[C@]1(NC(=O)[C@@H]1C[C@@H](Oc2cc(-c3ccccc3)nc3cc(OC)ccc23)CN1C(=O)[C@@H](CC(=O)N1CCCCC1)C(C)(C)C)C(=O)NS(=O)(=O)Cc1ccccc1` [Compound 64, (2S,4R)-N-((1R,2S)-1-(benzylsulfonyl-carbamoyl)-2-vinylcyclopropyl)-1-((S)-2-tert-butyl-4-oxo-4-(piperidin-1-yl)butanoyl)-4-(7-methoxy-2-phenylquinolin-4-yloxy)pyrrolidine-2-carboxamide], the EC50 fell in the range of 1000 to 10000 nM.

Take `C=C[C@@H]1C[C@]1(NC(=O)[C@@H]1C[C@@H](Oc2cc(-c3ccccc3)nc3cc(OC)ccc23)CN1C(=O)[C@@H](CC(=O)N1CCC(N(C)C)C1)C(C)(C)C)C(=O)NS(=O)(=O)C1CC1` (stereo partly drawn) [Compound 90, (2S,4R)-1-((2S)-2-tert-butyl-4-(3-(dimethylamino)pyr-rolidin-1-yl)-4-oxobutanoyl)-N-((1R,2S)-1-(cyclopropylsulfonyl-carbamoyl)-2-vinylcyclopropyl)-4-(7-methoxy-2-phenylquinolin-4-yloxy)pyrrolidine-2-carboxamide]: the concentration giving a half-maximal response (EC50) was 1000 to 10000 nM.

With `C=C[C@@H]1C[C@]1(NC(=O)[C@@H]1C[C@@H](Oc2cc(-c3ccccn3)nc3cc(OC)ccc23)CN1C(=O)[C@@H](CC(=O)N1CCCC(F)(F)C1)C(C)(C)C)C(=O)NS(=O)(=O)C1CC1` [Compound 217, (2S,4R)-1-((S)-2-tert-butyl-4-(3,3-difluoropiperidin-1-yl)-4-oxobutanoyl)-N-((1R)-1-(cyclopropyl-sulfonylcarbamoyl)-2-vinylcyclopropyl)-4-(7-methoxy-2-(pyridin-2-yl)quinolin-4-yloxy)pyrrolidine-2-carboxamide], the concentration for a half-maximal effect (EC50) is under 1000 nM.

Take `C=CC1CC1(NC(=O)C1C[C@@H](Oc2cc(-c3ccccc3)nc3cc(OC)ccc23)CN1C(=O)[C@H](CC(=O)N1CCCCC1)CC(C)C)C(=O)NS(=O)(=O)C1CC1` (stereo partly drawn) [Compound 51, (4R)-N-(1-(cyclopropyl-sulfonylcarbamoyl)-2-vinylcyclopropyl)-4-(7-methoxy-2-phenylquinolin-4-yloxy)-1-((S)-4-methyl-2-(2-oxo-2-(piperidin-1-yl)ethyl)pentano-yl)pyrrolidine-2-carboxamide]: the EC50 lay in the range of 1000 to 10000 nM.

For `C=CC1C[C@]1(NC(=O)[C@@H]1C[C@@H](Oc2cc(-c3ccccc3)nc3cc(OC)ccc23)CN1C(=O)[C@@H](CC(=O)N1CCCC(CNC(=O)OC(C)(C)C)C1)C(C)(C)C)C(=O)NS(=O)(=O)C1CC1` (stereo partly drawn) [Compound 168, tert-butyl (1-((S)-3-((2S,4R)-2-((1R,2S)-1-(cyclopropyl-sulfonylcarbamoyl)-2-vinylcyclopropyl-carbamoyl)-4-(7-methoxy-2-phenylquinolin-4-yloxy)pyrrolidine-1-carbonyl)-4,4-dime-thylpentanoyl)piper-idin-3-yl)methylcarbamate], the EC50 was under 1000 nM.

For `C=C[C@@H]1C[C@]1(NC(=O)[C@@H]1C[C@@H](Oc2cc(-c3ccccn3)nc3c(Cl)c(OC)ccc23)CN1C(=O)[C@@H](CC(=O)N1CCCC(F)C1)C(C)(C)C)C(=O)NS(=O)(=O)C1CC1` (some centres unmarked) [Compound 209], the EC50 is under 1000 nM.

Regarding `C=C[C@@H]1C[C@]1(NC(=O)[C@@H]1C[C@@H](OC(=O)Nc2ccccc2C(=O)OCC)CN1C(=O)[C@@H](CC(=O)N1CCCCC1)C(C)(C)C)C(=O)NS(=O)(=O)C1CC1` [Compound 94], the EC50 was under 1000 nM.

Regarding `C=C[C@@H]1C[C@]1(NC(=O)[C@@H]1C[C@@H](Oc2cc(-c3ccccc3)nc3cc(OC)ccc23)CN1C(=O)[C@@H](CC(=O)N1CCC1c1ccccc1)C(C)(C)C)C(=O)NS(=O)(=O)C1CC1` (stereo partly drawn) [Compound 227, (2S,4R)-1-((2S)-2-tert-butyl-4-oxo-4-(2-phenylazetidin-1-yl)butanoyl)-N-((1R)-1-(cyclopropyl-sulfonylcarbamoyl)-2-vinylcyclopropyl)-4-(7-methoxy-2-phenylquinolin-4-yloxy)pyrrolidine-2-carboxamide], the EC50 is under 1000 nM.

As to `C=CCC1(S(=O)(=O)NC(=O)[C@@]2(NC(=O)[C@@H]3C[C@@H](Oc4cc(-c5ccccc5)nc5cc(OC)ccc45)CN3C(=O)[C@@H](CC(=O)N3CCCCC3)C(C)(C)C)C[C@H]2C=C)CC1` [Compound 151], the half-maximal effective concentration (EC50) is under 1000 nM.

These data come from patent publication US9133115B2 (ACHILLION PHARMACEUTICALS, INC., priority 2008, dated 2015).
